# Measurements: patent US20110053933A1, “HYDROXYQUINOXALINECARBOXAMIDE DERIVATIVE” (DAIICHI SANKYO COMPANY, LIMITED, priority 2008, published 2011)
# pIC50: −log10 of the molar value.
# Test system: γ-glutamyl carboxylation reaction (human Gas6 in Gas6-HEK293 cells)
# Experiment: Inhibitory action on γ-glutamyl carboxylation reaction (secreted γ-glutamyl carboxylated Gas6 by ELISA)
# Type: cell-based
# Details: vitamin K2 100 nM, exposure 18 to 20 hours, ELISA absorbance at 620 nm, read-out: IC50 (50% inhibitory concentration for the γ-glutamyl carboxylation reaction)
# Procedure: Measurement of Inhibitory Action on γ-Glutamyl Carboxylation Reaction
# Cells were used that expressed Gas6 excreted outside the cells when subjected to γ-glutamyl carboxylation, and inhibitory action on γ-glutamyl carboxylation reaction was assessed by measuring the secreted amount of extracellular Gas6 by ELISA method.
# (A) Preparation for Assay Plate Containing Solid-Phase Anti-Human Gas6 Antibody
# Goat anti-human Gas6 antibody (R&D Systems, Inc.) was diluted to 1 μg/ml with Dulbecco's phosphate-buffered saline, and 40 μl aliquots thereof were dispensed into each well of a 384-well microplate. After immobilizing the antibody to the solid phase by allowing it to stand at 4° C. overnight or at room temperature for 2 hours or more, each well was washed three times with wash buffer (10 mM Tris-HCl pH 7.4, 150 mM sodium chloride, 0.05% Tween20). After removing the supernatant, 80 μl aliquots of a 1% aqueous solution of Block Ace (Dainippon Sumitomo Pharma) were dispensed into each well and allowed to react at room temperature for 1 hour or more.
# (B) Exposure of Test Compounds to Cells Stably Expressing Human Gas6
# Cells that stably express human Gas6 (Gas6-HEK293), which were prepared by inserting human Gas6 gene (inserted between SalI and NotI within multiple cloning sites of pCIneo expression vector) into HEK293 cells, were grown and sub-cultured using Dulbecco's modified Eagle's medium (DMEM) containing 10% fetal calf serum (FCS). On the day before ELISA measurement, the Gas6-HEK293 cells were detached with trypsin-EDTA, dispersed in DMEM containing 10% FCS, and disseminated into each well of a 384-well, collagen type I-coated plate (Becton-Dickinson) in 30 μl aliquots containing 1.0×10^4 cells each, followed by culturing for 3 to 4 hours at 5% CO2 and 37° C. 30 μl aliquots of DMEM containing test compound solutions, prepared at various concentrations by dissolving in DMSO, and vitamin K2 at 0.1% and 100 nM, respectively (indicating final concentrations in both cases) were added to each well followed by additionally culturing for 18 to 20 hours.
# (C) Quantification of γ-Glutamyl Carboxylated Gas6 by ELISA and Calculation of 50% Inhibitory Concentrations of γ-Glutamyl Carboxylation Reaction
# After removing the 1% Block Ace aqueous solution from the preliminarily prepared assay plates containing solid phase anti-human Gas6 antibody, the culture supernatant of Gas6-HEK293 cells exposed to the test compounds was collected and 40 μl aliquots were dispensed into each well followed by allowing to react at room temperature for 2 hours (Step 1). The culture supernatant was removed and each well was washed three times with wash buffer. Thereafter, the same washing procedure was carried out between Steps 2 and 3 and Steps 3 and 4. Subsequently, 40 μl aliquots of mouse anti-human […] antibody (American Diagnostica inc.), adjusted to 0.5 μg/ml with immunoreaction buffer (100 mM Tris-HCl pH 7.4, 0.05% Tween20, 0.1% Block Ace), were dispensed into each well and allowed to react at room temperature for 1 hour (Step 2). Next, 40 μl aliquots of alkaline phosphatase-conjugated anti-mouse IgG antibody adjusted to 1.0 μg/ml with immunoreaction buffer were dispensed into each well and allowed to react at room temperature for 1 hour (Step 3). 40 μl aliquots of BluePhos Microwell (KPL) were dispensed into each well, and after incubating at room temperature for 10 minutes (Step 4), 20 μl aliquots of 5% EDTA were added to each well to stop the color development reaction, followed by measurement of absorbance at 620 nm (Step 5). […]
smiles,measurement,value
"CC(C)[C@H](NC(=O)c1nc2ccccc2nc1O)C(=O)N1CCC(Oc2ccc(OC(F)(F)F)cc2)CC1 [Example 18, 3-Hydroxy-N-[(1S)-2-methyl-1-({4-[4-(trifluoromethoxy)phenoxy]piperidin-1-yl}carbonyl)propyl]quinoxaline-2-carboxamide]",pIC50,8.54
"CC(C)[C@H](NC(=O)c1nc2ccccc2nc1O)C(=O)N1CCC(Oc2ccc(C(F)(F)F)nn2)CC1 [Example 100, 3-Hydroxy-N-{(1S)-2-methyl-1-[(4-{[6-(trifluoromethyl)pyridazin-3-yl]oxy}piperidin-1-yl)carbonyl]propyl}quinoxaline-2-carboxamide]",pIC50,7.98
"CC(C)[C@H](NC(=O)c1nc2ccccc2nc1O)C(=O)N1CCC(Nc2ccc(F)cn2)CC1 [Example 34, N-[(1S)-1-({4-[(5-Fluoropyridin-2-yl)amino]piperidin-1-yl}carbonyl)-2-methylpropyl]-3-hydroxyquinoxaline-2-carboxamide]",pIC50,7.92
"CC(C)[C@H](NC(=O)c1nc2ccccc2nc1O)C(=O)N1CCC(Oc2ncc(Br)cn2)CC1 [Example 65, N-[(1S)-1-({4-[(5-Bromopyrimidin-2-yl)oxy]piperidin-1-yl}carbonyl)-2-methylpropyl]-3-hydroxyquinoxaline-2-carboxamide]",pIC50,7.70
"CC(C)[C@H](NC(=O)c1nc2ccccc2nc1O)C(=O)N1CCC(N(C)c2ccc(F)cn2)CC1 [Example 35, N-[(1S)-1-({4-[(5-Fluoropyridin-2-yl)(methyl)amino]piperidin-1-yl}carbonyl)-2-methylpropyl]-3-hydroxyquinoxaline-2-carboxamide]",pIC50,> 9.22
"CC(C)[C@H](NC(=O)c1nc2ccc(F)cc2nc1O)C(=O)N1CCC(Oc2ccc(F)cc2)CC1 [Example 74, N-[(1S)-1-{[4-(4-Fluorophenoxy)piperidin-1-yl]carbonyl}-2-methylpropyl]-6-fluoro-3-hydroxyquinoxaline-2-carboxamide]",pIC50,8.26
"CC(C)[C@H](NC(=O)c1nc2ccccc2nc1O)C(=O)N1CCC(C(O)c2ccc(F)cc2F)CC1 (stereo partly drawn) [Example 99, N-[(1S)-1-({4-[(2,4-Difluorophenyl)(hydroxy)methyl]piperidin-1-yl}carbonyl)-2-methylpropyl]-3-hydroxyquinoxaline-2-carboxamide]",pIC50,8.31
"C[C@H](NC(=O)c1nc2ccccc2nc1O)C(=O)N1CCC(Oc2ccc(OC(F)(F)F)cc2)CC1 [Example 4, 3-Hydroxy-N-[(1S)-1-methyl-2-oxo-2-{4-[4-(trifluoromethoxy)phenoxy]piperidin-1-yl}ethyl]quinoxaline-2-carboxamide]",pIC50,8.33
"CC(C)[C@H](NC(=O)c1nc2ccccc2nc1O)C(=O)N1CCC(Oc2cnc(N3CCCCC3)nc2)CC1 [Example 97, 3-Hydroxy-N-[(1S)-2-methyl-1-({4-[(2-piperidin-1-ylpyrimidin-5-yl)oxy]piperidin-1-yl}carbonyl)propyl]quinoxaline-2-carboxamide]",pIC50,8.35
"O=C(N[C@H](C(=O)N1CCC(Oc2ccc(F)cn2)CC1)C1CC1)c1nc2ccccc2nc1O [Example 14, N-[(1S)-1-Cyclopropyl-2-{4-[(5-fluoropyridin-2-yl)oxy]piperidin-1-yl}-2-oxoethyl]-3-hydroxyquinoxaline-2-carboxamide]",pIC50,7.60
"CC(C)[C@H](NC(=O)c1nc2ccccc2nc1O)C(=O)N1CCC(Oc2ncc(N3CCCCC3)cn2)CC1 [Example 96, 3-Hydroxy-N-[(1S)-2-methyl-1-({4-[(5-piperidin-1-ylpyrimidin-2-yl)oxy]piperidin-1-yl}carbonyl)propyl]quinoxaline-2-carboxamide]",pIC50,8.02
"CC(C)[C@H](NC(=O)c1nc2ccccc2nc1O)C(=O)N1CCC(N(C)c2ccc(F)cc2)CC1 [Example 30, N-[(1S)-1-({4-[(4-Fluorophenyl)(methyl)amino]piperidin-1-yl}carbonyl)-2-methylpropyl]-3-hydroxyquinoxaline-2-carboxamide]",pIC50,8.77
"CC(C)[C@H](NC(=O)c1nc2ccccc2nc1O)C(=O)N1CCC(Oc2ccc(F)cc2Br)CC1 [Example 21, N-[(1S)-1-{[4-(2-Bromo-4-fluorophenoxy)piperidin-1-yl]carbonyl}-2-methylpropyl]-3-hydroxyquinoxaline-2-carboxamide]",pIC50,9.05
"CC(C)[C@H](NC(=O)c1nc2ccccc2nc1O)C(=O)N1CCC(Oc2ccc(F)cc2)CC1 [Example 16, N-[(1S)-1-{[4-(4-Fluorophenoxy)piperidin-1-yl]carbonyl}-2-methylpropyl]-3-hydroxyquinoxaline-2-carboxamide]",pIC50,8.15
"CC(C)[C@H](NC(=O)c1nc2ccccc2nc1O)C(=O)N1CCC(C(=O)c2ccc(F)cc2F)CC1 [Example 98, N-[(1S)-1-{[4-(2,4-Difluorobenzoyl)piperidin-1-yl]carbonyl}-2-methylpropyl]-3-hydroxyquinoxaline-2-carboxamide]",pIC50,8.46
"CC(C)[C@H](NC(=O)c1nc2ccccc2nc1O)C(=O)N1CCC(Oc2ccc(F)cc2F)CC1 [Example 23, N-[(1S)-1-{[4-(2,4-Difluorophenoxy)piperidin-1-yl]carbonyl}-2-methylpropyl]-3-hydroxyquinoxaline-2-carboxamide]",pIC50,> 9.22
"C[C@H](NC(=O)c1nc2ccccc2nc1O)C(=O)N1CCC(Oc2ccc(F)cn2)CC1 [Example 6, N-[(1S)-2-{4-[(5-Fluoropyridin-2-yl)oxy]piperidin-1-yl}-1-methyl-2-oxoethyl]-3-hydroxyquinoxaline-2-carboxamide]",pIC50,7.13
"CC(C)[C@H](NC(=O)c1nc2ccccc2nc1O)C(=O)N1CCC(Sc2ccc(F)cc2)CC1 [Example 45, N-[(1S)-1-({4-[(4-Fluorophenyl)thio]piperidin-1-yl}carbonyl)-2-methylpropyl]-3-hydroxyquinoxaline-2-carboxamide]",pIC50,8.89
"O=C(N[C@H](C(=O)N1CCC(Oc2ccc(F)cc2)CC1)C1CC1)c1nc2ccccc2nc1O [Example 13, N-{(1S)-1-Cyclopropyl-2-[4-(4-fluorophenoxy)piperidin-1-yl]-2-oxoethyl}-3-hydroxyquinoxaline-2-carboxamide]",pIC50,8.24
